Experimental data taken from patent US20160362463A1, “Pharmaceutical composition inhibiting interaction between MZF-1 and Elk-1” (China Medical University, priority 2015, published 2016).
Where two headings read alike, the source gives them in different places. No end group written: not given here.

Key:
[1] = test system: Hs578T and MDA-MB-231 cells; experiment: Cell migration assay after treatment with TAT-fused peptides; format: cell-based, human; settings: 3 days after addition of the peptides
Experimental: The cell migration assay was performed 3 days after the addition of the peptides to the cells.
(§1) The TAT-fused peptides were designed such that the TAT moiety corresponds to amino acid residues 48-57 of the HIV TAT protein, the MZF-160-72 moiety corresponds to residue 60-72 of the human MZF-1 protein and the Elk-1145-157 moiety corresponds to residues 145-157 of the human Elk-1 protein. The TAT and MZF-1/Elk-1 moieties were linked by three glycine linker residues. The TAT-fused peptide MZF-1 normal fragment (60-72; […] as SEQ ID NO: 57), MZF-1 mutant fragment (60-72; […] as SEQ ID NO: 58), Elk-1 normal fragment (145-157; […] as SEQ ID NO: 59), and Elk-1 mutant fragment (145-157; […] as SEQ ID NO: 60) were synthesized by MDBio, Inc. (Taipei, Taiwan). For transduction of the TAT fusion proteins cells were cultured to 50-60% confluence. The culture medium was removed and replaced with fresh, serum-free medium, followed by the addition of the TAT fusion proteins at the indicated concentrations. Three days post-treatment the cells were used for migration assays and western blotting.
The migration assay was performed using a 48-well Boyden chamber (Neuro Probe) plated with 8-μm pore size polycarbonate membrane filters (Neuro Probe). […] The migratory phenotypes were determined by counting the cells that migrated to the lower side of the filter through microscopy at 200× magnification.

[2] = test system: Hs578T and MDA-MB-231 cells; experiment: Immunoblotting of protein levels in TAT-fused peptide-treated cells; format: cell-based, human; settings: three days post-treatment
Description: as §1

MZF-1/Elk-1 interaction = target: T1, MZF-1/Elk-1 interaction (Homo sapiens, UniProt P19419+P28698); experiment: Co-immunoprecipitation of MZF-1 and Elk-1 in HEK-293 lysates with added TAT-fused peptides; format: binding; settings: 50, 100 and 150 nmol peptide added to lysates, overnight at 4° C.
T1 construct: FLAG-Elk-1; 1-428; MZF-1-c-Myc; 1-485; His (from the myc-His vector) (C); expressed in transfected cells; host or cells: HEK-293 (lysates)
T1 sequence (P28698 1-485 isoform P28698-2, one chain of several): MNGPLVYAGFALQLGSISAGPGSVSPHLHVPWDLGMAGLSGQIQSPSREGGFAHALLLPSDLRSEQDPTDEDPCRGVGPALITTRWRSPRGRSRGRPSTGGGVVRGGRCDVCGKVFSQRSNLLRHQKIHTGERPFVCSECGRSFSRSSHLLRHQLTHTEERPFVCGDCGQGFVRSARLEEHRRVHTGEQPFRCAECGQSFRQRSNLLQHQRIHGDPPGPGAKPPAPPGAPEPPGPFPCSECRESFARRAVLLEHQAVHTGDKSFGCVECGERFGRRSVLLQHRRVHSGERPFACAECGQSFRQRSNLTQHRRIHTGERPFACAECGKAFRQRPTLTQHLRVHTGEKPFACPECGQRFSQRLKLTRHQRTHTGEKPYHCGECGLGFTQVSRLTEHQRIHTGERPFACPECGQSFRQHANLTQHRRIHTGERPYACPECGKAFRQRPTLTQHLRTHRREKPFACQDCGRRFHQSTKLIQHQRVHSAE
Experimental: HEK-293 cells were transfected with empty vector, FLAG-Elk-1, MZF-1-c-Myc, FLAG-MZF-1 or Elk-1-cMyc construct. ‘+’ indicates the presence of each item and ‘-’ indicates their absence. Different concentrations (50, 100 and 150 nmol) of TAT-fused peptides (normal or mutant) were then added to the lysates and incubated overnight at 4° C. and then subjected to immunoprecipitation with anti-c-Myc antibody, followed by immunoblotting against FLAG and c-Myc. Lysates of HEK-293 cells transfected with FLAG-Elk-1 or FLAG-MZF-1 vector indicated as a “Input”.

MDA-MB-231 cells = experiment: MTT cell viability with anti-cancer drugs, MDA-MB-231 cells; format: cell-based, human; settings: read-out: 50% inhibitory concentration (IC50), cell viability
Experimental: The level of multidrug resistance protein permeability glycoprotein (P-gp) was determined by upper panel. Cell growth was determined using the MTT assay 2 days after treatment (lower panel).
Cell proliferation was analyzed using the yellow tetrazolium (MTT) assay. Cells were seeded in 24-well plates at 1×10^4 cells/well and cultured in DMEM containing 10% FCS at 37° C. overnight. Cells were treated with or without various plasmids and incubated for 24 or 48 h. After incubation, the medium was replaced with fresh medium, and the cells were incubated with 1 mg/ml MTT for 3 h before being dissolved in 1 ml of DMSO for 30 min. The optical density at 570 nm was measured using a spectrophotometer.
To determine if MZF-160-72 peptide-mediated decrease in P-gp expression sensitizes breast cancer cells to chemotherapeutic agents, MZF-160-72-expressing MDA-MB-231 stable cells were treated with acriflavine and cisplatin (commonly used to treat breast cancer-insert) and their cell viability measured.

Hs578T cells = experiment: MTT cell viability with anti-cancer drugs, Hs578T cells; format: cell-based, human
[3] = target: T2, Elk-1 and MZF-1 DNA-binding activity at the PKCα promoter (Homo sapiens, UniProt P19419+P28698); experiment: EMSA of Elk-1 and MZF-1 binding to PKCα promoter probe, nuclear extracts of transfected HEK-293 cells; format: biochemical; settings: biotin-labeled WT PKCα promoter probe
T2 construct: Primers and restriction enzyme (R.E.) sites for the full-length and truncated MZF-1, Elk-1; expressed in transfected cells; host or cells: HEK-293 (nuclear extracts)
T2 sequence (P28698 1-485 isoform P28698-2, one chain of several): as above
Experimental: The biotin-labeled WT oligonucleotide probes were incubated with the indicated concentration of nuclear extracts of the different-treated HEK-293 cells, which were transfected with empty vector, Elk-1, MZF-1, MZF-160-72 or mutant MZF-160-72 and the reactions were resolved on a nondenaturing polyacrylamide gel. DNA-protein complexes are indicated by the black arrow-head.
The biotin-labeled wild-type oligonucleotide probes were incubated with the indicated concentration of nuclear extracts of the different-treated HEK-293 cells, which were transfected with empty vector, Elk-1, MZF-1, Elk-1145-157 or mutant Elk-1145-157.
EMSA analysis was performed using a LightShift™ chemiluminescent EMSA kit (Pierce). 15 μg of nuclear extract was used for each EMSA analysis. […] The membrane was immediately cross-linked at 120 mJ/cm^2 using an UV transilluminator and then analyzed via chemiluminescence according to the manufacturer's instructions.

Elk-1 = target: T3, Elk-1 (Homo sapiens, UniProt P19419); experiment: Co-immunoprecipitation of MZF-1-c-Myc fragments with FLAG-Elk-1 in transfected HEK-293 cells; format: binding; settings: FLAG-Elk-1 plus c-Myc fragment
T3 construct: FLAG-Elk-1; 1-428; expressed in transfected cells; host or cells: HEK-293
T3 sequence (P19419 1-428): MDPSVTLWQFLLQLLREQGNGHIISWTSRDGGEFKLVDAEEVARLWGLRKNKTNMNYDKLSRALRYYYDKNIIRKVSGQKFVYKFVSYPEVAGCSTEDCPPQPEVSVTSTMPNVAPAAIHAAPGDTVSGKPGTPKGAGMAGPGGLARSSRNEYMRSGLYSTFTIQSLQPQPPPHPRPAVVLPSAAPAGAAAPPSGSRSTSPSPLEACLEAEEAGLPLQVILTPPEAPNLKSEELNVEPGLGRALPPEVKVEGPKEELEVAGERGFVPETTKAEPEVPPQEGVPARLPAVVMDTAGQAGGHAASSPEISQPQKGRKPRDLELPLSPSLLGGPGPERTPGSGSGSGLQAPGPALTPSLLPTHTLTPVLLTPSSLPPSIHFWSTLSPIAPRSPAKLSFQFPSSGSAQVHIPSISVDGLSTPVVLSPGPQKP
Experimental: Red bands indicate the fragments that bound Elk-1 as present in the co-immunoprecipitation assay (lower panel). HEK-293 cells were transfected with 5 μg FLAG-Elk-1 and either empty vector or the indicated MZF-1-c-Myc fragment. The c-Myc-fused peptides were Immunoprecipitation by c-Myc monoclonal antibody and then Immunoblotting with the anti-FLAG antibodies. Lysates of HEK-293 cells transfected with the FLAG-Elk-1 only were also Immunoblotting as a control (Input).
MZF-1 contains an acidic domain (amino acids 60-72) with six aspartates or glutamates upstream of the zinc finger regions. To identify the specific residues through which MZF-1 interacts with Elk-1 we designed various protein fragments containing only the relevant interacting domains for co-immunoprecipitation assays (FIG. 14, top). The full-length MZF-1 and MZF-11-72, MZF-11-141, and MZF-160-72 fragments (all contain the acidic domain) all bound Elk-1 (FIG. 14, lower panel) but not MZF-11-60 or MZF-173-485.

[4] = target: T4, FLAG-Elk-1 (amino acids 1-428) (human, UniProt P19419 1-428); experiment: co-immunoprecipitation (anti-c-Myc IP, anti-FLAG blot), HEK-293 cells
T4 construct: range 1-428; Full-length Elk-1 expressed in HEK-293 cells; not shown: FLAG tag
T4 sequence (looked up): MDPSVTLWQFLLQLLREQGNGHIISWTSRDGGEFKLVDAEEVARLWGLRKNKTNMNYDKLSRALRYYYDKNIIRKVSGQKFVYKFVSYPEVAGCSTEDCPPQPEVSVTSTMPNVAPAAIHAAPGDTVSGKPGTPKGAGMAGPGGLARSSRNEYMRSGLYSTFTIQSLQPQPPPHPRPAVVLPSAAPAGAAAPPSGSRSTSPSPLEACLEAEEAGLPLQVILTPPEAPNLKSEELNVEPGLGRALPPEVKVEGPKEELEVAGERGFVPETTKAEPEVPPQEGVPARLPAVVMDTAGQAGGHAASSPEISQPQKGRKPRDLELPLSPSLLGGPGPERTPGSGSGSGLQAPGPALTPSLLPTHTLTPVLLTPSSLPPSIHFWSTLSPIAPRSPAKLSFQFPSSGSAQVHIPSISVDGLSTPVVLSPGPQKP

[5] = target: T5, FLAG-MZF-1 (amino acids 1-485) (human, UniProt P28698-2 1-485); experiment: co-immunoprecipitation, HEK-293 cells
T5 construct: range 1-485; Full-length MZF-1 expressed in HEK-293 cells; not shown: FLAG tag

[6] = MDA-MB-231 cells before MZF-160-72 expression (parental)
[7] = MZF-160-72-expressing MDA-MB-231 stable cells
[8] = Hs578T cells before MZF-160-72 expression (parental)
[9] = MZF-160-72-expressing Hs578T cells

## YGRKKRRQRRRGGGDEDTPDQESRLDS (listed as Homo sapiens) [TAT-MZF-160-72, TAT-fused peptide MZF-1 normal fragment (60-72), three glycine linker residues]
[1]
  cell migration: reduced cell migration
[2]
  levels of EMT-related (PKCα, Slug and Vimentin) proteins: noticeably increased
  levels of MET-related (E-cadherin) proteins: decreased
MZF-1/Elk-1 interaction
  binding of MZF-1 to Elk-1 and vice versa (co-immunoprecipitation): reduced the binding of MZF-1 to Elk-1 and vice versa in a dose-dependent manner

## YGRKKRRQRRRGGGLARSSRNEYMRSG (listed as Homo sapiens) [TAT-Elk-1145-157, TAT-fused peptide Elk-1 normal fragment (145-157), three glycine linker residues]
[1]
  cell migration: reduced cell migration
[2]
  levels of EMT-related (PKCα, Slug and Vimentin) proteins: noticeably increased
  levels of MET-related (E-cadherin) proteins: decreased
MZF-1/Elk-1 interaction
  binding of MZF-1 to Elk-1 and vice versa (co-immunoprecipitation): reduced the binding of MZF-1 to Elk-1 and vice versa in a dose-dependent manner

## N.N.[Cl][Pt][Cl] [cisplatin]
MDA-MB-231 cells; [6]
  IC50: 23.7 µM
MDA-MB-231 cells; [7]
  IC50: 16.2 µM
Hs578T cells; [8]
  IC50: 28 µM
Hs578T cells; [9]
  IC50: 21.1 µM

## Elk-1145-157: Heparin-binding domain fragment, amino acids 145-157 of human Elk-1; expressed as c-Myc-fused fragment (LARSSRNEYMRSG; also: c-Myc tag fusion; listed as Homo sapiens)
[3]
  Elk-1 and MZF-1 DNA-binding activity (EMSA): decreased Elk-1 and MZF-1 DNA-binding activity in a dose-dependent manner

## acriflavine
MDA-MB-231 cells; [6]
  IC50: 2.43 µM
MDA-MB-231 cells; [7]
  IC50: 1.49 µM
Hs578T cells; [8]
  IC50: 2.56 µM
Hs578T cells; [9]
  IC50: 1.33 µM

## mutant MZF-160-72: MZF-1 60-72 fragment with aspartates D61, D67, D70 and D72 changed to uncharged alanine
Elk-1
  binding to Elk-1 (co-immunoprecipitation): substantially decreased
[3]
  Elk-1 and MZF-1 DNA-binding activity (EMSA): did not affect their binding activity

B1: MZF-1-c-Myc fragment, amino acids 1-60 (other, human, UniProt P28698-2 1-60, looked up)
chain: MNGPLVYAGFALQLGSISAGPGSVSPHLHVPWDLGMAGLSGQIQSPSREGGFAHALLLPS
notes: range 1-60; Expressed in HEK-293 cells; also called MZF-11-60; not shown: c-Myc(-His) tag from the pcDNA3.1/myc-His vector
[4]
  binding result: no binding

B2: Elk-1-c-Myc fragment, amino acids 145-157 (Mutant) (peptide, UniProt P19419 145-157, looked up)
chain: LAASSANEYMASG
notes: not shown: c-Myc(-His) tag from the pcDNA3.1/myc-His vector
[5]
  binding result: no binding
